What was measured:
Format in all cases: biochemical
[1] = biological target: B-Raf (Homo sapiens, UniProt P15056); assay: Kinase activity assay, B-Raf; conditions: under the test conditions employed; read-out: activity toward kinase B-Raf, IC50
Experimental: (§1) The effect of potential modulators of kinase activity of c-kit and other kinases can be measured in a variety of different assays known in the art, e.g., biochemical assays, cell-based assays, and in vivo testing (e.g. model system testing). Such in vitro and/or in vivo assays and tests can be used in the present invention. As an exemplary kinase assay, the kinase activity of c-kit or Fms is measured in AlphaScreening (Packard BioScience). Assays for the activity of various kinases are described, for example, in U.S. patent application Ser. No. 11/473,347 (see also, PCT publication WO2007002433), the disclosure of which is hereby incorporated by reference.

[2] = biological target: B-Raf V600E (Homo sapiens, UniProt P15056, V600E); assay: Kinase activity assay, B-Raf V600E; conditions: under the test conditions employed; read-out: activity toward kinase B-Raf V600E, IC50
Experimental: as §1

[3] = biological target: B-Raf V600E/T529I (Homo sapiens, UniProt P15056, T529I/V600E); assay: Kinase activity assay, B-Raf V600E/T529I; conditions: under the test conditions employed; read-out: activity toward kinase B-Raf V600E/T529I, IC50
Experimental: as §1

[4] = biological target: c-Raf-1 (Homo sapiens, UniProt P04049); assay: Kinase activity assay, c-Raf-1; conditions: under the test conditions employed; read-out: activity toward kinase c-Raf-1, IC50
Experimental: as §1

[5] = biological target: Flt1 (Homo sapiens, UniProt P17948); assay: Kinase activity assay, Flt1; conditions: under the test conditions employed; read-out: activity toward kinase Flt1, IC50
Chain of Flt1 (P17948 27-1338): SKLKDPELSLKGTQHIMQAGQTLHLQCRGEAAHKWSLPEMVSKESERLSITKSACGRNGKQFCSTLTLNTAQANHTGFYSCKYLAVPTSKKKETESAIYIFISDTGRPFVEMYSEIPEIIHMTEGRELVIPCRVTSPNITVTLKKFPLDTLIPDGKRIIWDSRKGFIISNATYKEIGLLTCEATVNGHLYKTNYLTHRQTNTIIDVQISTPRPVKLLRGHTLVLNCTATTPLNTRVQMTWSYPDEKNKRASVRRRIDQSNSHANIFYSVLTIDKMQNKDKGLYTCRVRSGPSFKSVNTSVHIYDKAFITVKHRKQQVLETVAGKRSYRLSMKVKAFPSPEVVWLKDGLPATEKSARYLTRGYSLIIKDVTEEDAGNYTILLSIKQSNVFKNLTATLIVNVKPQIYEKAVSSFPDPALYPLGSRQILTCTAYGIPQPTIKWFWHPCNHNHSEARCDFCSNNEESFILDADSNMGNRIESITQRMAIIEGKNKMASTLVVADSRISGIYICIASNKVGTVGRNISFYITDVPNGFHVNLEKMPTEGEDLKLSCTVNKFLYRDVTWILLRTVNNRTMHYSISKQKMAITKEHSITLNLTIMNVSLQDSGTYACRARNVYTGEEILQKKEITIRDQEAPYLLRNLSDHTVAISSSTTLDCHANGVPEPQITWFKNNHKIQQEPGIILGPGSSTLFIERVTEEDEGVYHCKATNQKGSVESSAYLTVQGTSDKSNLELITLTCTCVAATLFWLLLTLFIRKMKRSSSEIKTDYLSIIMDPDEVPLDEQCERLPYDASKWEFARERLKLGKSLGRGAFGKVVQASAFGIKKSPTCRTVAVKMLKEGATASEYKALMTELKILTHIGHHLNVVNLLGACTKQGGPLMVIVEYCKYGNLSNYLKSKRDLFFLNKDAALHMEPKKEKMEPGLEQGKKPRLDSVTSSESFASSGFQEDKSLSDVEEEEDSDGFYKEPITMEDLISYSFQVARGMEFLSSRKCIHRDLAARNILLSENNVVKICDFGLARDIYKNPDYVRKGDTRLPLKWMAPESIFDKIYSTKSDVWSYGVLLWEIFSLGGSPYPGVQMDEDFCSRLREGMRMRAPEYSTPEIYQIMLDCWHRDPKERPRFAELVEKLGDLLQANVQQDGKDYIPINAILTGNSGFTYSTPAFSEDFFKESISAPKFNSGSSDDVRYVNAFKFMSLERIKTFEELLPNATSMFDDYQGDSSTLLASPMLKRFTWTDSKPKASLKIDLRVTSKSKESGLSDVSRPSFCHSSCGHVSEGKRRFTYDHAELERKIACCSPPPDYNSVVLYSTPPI
Experimental: as §1

[6] = biological target: Kdr (Homo sapiens, UniProt P35968); assay: Kinase activity assay, Kdr; conditions: under the test conditions employed; read-out: activity toward kinase Kdr, IC50
Chain of Kdr (P35968 20-1356): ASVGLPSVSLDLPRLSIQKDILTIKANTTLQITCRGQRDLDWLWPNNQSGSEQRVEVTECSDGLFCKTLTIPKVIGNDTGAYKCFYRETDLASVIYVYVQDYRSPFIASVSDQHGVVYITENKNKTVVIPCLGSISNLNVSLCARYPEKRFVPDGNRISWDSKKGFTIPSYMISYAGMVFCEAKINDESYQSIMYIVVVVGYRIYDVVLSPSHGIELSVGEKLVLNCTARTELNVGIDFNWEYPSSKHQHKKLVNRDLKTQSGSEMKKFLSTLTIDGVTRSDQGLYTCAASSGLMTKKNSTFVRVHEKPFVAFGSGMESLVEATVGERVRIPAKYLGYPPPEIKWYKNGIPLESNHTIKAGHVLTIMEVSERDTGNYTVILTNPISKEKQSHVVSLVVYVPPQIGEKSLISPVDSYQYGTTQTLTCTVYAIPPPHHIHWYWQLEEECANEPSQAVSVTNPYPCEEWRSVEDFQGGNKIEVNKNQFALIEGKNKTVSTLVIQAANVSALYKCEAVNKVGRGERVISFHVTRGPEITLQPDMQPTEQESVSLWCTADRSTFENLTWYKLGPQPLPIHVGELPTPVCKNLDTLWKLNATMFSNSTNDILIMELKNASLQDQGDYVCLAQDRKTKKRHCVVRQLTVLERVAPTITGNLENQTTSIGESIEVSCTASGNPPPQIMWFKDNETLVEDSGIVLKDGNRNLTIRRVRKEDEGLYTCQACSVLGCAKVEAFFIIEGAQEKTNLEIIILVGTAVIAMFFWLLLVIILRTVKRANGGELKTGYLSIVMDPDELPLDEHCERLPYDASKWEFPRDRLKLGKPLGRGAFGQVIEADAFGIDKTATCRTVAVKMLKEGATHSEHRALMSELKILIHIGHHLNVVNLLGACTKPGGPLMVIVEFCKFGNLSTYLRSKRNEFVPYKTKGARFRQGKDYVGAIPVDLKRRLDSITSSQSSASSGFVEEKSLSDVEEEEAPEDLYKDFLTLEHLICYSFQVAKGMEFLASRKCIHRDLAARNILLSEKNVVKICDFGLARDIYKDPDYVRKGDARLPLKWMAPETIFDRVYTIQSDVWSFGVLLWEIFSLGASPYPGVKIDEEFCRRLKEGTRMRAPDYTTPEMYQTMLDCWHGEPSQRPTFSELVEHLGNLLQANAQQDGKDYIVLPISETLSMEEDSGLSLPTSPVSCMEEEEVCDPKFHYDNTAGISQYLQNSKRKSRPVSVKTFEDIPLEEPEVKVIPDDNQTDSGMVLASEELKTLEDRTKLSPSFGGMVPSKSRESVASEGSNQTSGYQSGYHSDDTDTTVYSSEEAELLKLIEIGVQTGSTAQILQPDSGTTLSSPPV
Experimental: as §1

[7] = biological target: Fms (Homo sapiens, UniProt P07333); assay: Kinase activity assay, Fms; conditions: under the test conditions employed; read-out: activity toward kinase Fms, IC50
Chain of Fms (P07333 20-972): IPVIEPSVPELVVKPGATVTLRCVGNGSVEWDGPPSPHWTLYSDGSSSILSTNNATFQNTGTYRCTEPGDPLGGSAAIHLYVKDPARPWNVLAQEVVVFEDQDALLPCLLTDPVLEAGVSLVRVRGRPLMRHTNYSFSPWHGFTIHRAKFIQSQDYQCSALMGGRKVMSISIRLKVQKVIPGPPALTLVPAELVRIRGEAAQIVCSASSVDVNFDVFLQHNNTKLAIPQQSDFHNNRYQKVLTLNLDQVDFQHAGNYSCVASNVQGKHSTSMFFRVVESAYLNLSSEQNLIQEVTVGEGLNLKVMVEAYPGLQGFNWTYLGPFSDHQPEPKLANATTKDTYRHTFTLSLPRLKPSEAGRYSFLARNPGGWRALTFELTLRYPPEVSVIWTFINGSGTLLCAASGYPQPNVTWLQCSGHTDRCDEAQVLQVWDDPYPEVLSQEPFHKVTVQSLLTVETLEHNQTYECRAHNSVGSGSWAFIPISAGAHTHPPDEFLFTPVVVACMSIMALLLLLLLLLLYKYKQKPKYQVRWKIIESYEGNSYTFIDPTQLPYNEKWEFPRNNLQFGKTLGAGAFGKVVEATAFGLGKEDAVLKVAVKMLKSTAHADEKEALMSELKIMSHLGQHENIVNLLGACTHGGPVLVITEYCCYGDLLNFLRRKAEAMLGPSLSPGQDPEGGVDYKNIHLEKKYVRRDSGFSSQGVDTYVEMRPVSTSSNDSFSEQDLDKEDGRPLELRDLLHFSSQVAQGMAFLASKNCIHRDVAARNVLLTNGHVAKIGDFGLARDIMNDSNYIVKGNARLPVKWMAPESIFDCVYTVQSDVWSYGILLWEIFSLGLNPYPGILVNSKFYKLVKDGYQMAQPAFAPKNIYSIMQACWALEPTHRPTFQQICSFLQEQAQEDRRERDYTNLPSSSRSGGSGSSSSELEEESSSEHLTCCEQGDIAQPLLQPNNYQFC
Experimental: as §1

[8] = biological target: Kit (Homo sapiens, UniProt P10721); assay: Kinase activity assay, Kit; conditions: under the test conditions employed; read-out: activity toward kinase Kit, IC50
Chain of Kit (P10721 26-976): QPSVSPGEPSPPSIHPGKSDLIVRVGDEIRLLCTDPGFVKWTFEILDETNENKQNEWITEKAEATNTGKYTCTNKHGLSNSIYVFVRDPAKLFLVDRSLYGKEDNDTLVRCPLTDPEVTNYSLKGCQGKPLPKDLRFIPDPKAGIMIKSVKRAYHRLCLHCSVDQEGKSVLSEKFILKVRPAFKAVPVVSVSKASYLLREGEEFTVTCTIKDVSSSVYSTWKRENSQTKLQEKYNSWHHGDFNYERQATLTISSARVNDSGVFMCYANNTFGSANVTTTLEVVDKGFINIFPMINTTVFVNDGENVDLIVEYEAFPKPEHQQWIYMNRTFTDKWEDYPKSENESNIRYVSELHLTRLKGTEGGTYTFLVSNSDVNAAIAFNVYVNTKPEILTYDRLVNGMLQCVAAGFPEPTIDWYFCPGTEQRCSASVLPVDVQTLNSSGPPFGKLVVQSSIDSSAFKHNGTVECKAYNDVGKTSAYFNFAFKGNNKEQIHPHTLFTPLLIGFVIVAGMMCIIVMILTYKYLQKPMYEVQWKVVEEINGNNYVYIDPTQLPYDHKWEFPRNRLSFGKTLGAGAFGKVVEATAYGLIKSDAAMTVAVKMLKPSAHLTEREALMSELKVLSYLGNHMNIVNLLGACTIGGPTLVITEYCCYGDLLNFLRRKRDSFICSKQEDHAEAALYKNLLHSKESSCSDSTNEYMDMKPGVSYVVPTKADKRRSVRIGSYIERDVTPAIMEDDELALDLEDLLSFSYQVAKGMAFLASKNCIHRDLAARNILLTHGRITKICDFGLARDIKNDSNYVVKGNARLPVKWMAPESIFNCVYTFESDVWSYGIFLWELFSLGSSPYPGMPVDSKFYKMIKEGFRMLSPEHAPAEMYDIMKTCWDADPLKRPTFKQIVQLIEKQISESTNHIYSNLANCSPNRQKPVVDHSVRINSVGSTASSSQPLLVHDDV
Experimental: as §1

[9] = biological target: Src (Homo sapiens, UniProt P12931); assay: Kinase activity assay, Src; conditions: under the test conditions employed; read-out: activity toward kinase Src, IC50
Experimental: as §1

[10] = biological target: Jnk1 (Homo sapiens, UniProt P45983); assay: Kinase activity assay, Jnk1; conditions: under the test conditions employed; read-out: activity toward kinase Jnk1, IC50
Chain of Jnk1 (P45983 whole entry): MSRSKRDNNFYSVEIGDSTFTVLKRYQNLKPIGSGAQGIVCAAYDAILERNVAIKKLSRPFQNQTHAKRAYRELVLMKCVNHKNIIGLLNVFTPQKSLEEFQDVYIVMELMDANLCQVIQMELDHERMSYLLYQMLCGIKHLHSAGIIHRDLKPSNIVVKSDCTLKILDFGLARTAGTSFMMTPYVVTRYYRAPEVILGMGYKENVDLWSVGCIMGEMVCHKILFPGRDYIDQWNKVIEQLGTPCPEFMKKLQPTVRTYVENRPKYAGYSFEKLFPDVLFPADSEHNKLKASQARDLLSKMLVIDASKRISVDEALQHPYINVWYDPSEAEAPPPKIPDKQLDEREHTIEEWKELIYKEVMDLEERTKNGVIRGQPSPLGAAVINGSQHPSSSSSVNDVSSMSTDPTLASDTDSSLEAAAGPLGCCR
Experimental: as §1

[11] = biological target: Btk (Homo sapiens, UniProt Q06187); assay: Kinase activity assay, Btk; conditions: under the test conditions employed; read-out: activity toward kinase Btk, IC50
Experimental: as §1

Row | Structure (SMILES) | IC50 [1] [µM] | IC50 [2] [µM] | IC50 [3] [µM] | IC50 [6] [µM] | IC50 [7] [µM] | IC50 [8] [µM] | also measured
1 | COc1ccc(COc2cnc3[nH]ccc3c2)c(OC)c1 [P-0008, 5-(2,4-dimethoxybenzyloxy)-1H-pyrrolo[2,3-b]pyridine] | – | – | ≤ 10 | – | – | – | –
2 | c1cc2cc(OCC3CCOCC3)cnc2[nH]1 [P-0019, 5-((tetrahydro-2H-pyran-4-yl)methoxy)-1H-pyrrolo[2,3-b]pyridine] | ≤ 10 | ≤ 10 | – | – | – | – | –
3 | c1ccc(CN2CC[C@H](Oc3cnc4[nH]ccc4c3)C2)cc1 [P-0026, 5-((S)-1-benzylpyrrolidin-3-yloxy)-1H-pyrrolo[2,3-b]pyridine] | ≤ 10 | – | – | – | – | – | –
4 | COCCOc1cnc2[nH]ccc2c1 [P-0009, 5-(2-methoxyethoxy)-1H-pyrrolo[2,3-b]pyridine] | ≤ 10 | ≤ 10 | – | – | – | – | –
5 | c1cc2cc(OC3CCCC3)cnc2[nH]1 [P-0001, 5-cyclopentyloxy-1H-pyrrolo[2,3-b]pyridine] | – | – | – | ≤ 10 | – | ≤ 10 | IC50 [10]: ≤ 10 µM
6 | c1ccc(Oc2cnc3[nH]ccc3c2)cc1 [P-0035, 5-phenoxy-1H-pyrrolo[2,3-b]pyridine] | – | – | – | ≤ 10 | ≤ 10 | ≤ 10 | –
7 | CCCS(=O)(=O)Nc1ccc(F)c(C(=O)c2c[nH]c3ncc(OCCN4CCOCC4)cc23)c1F [P-0041, Propane-1-sulfonic acid {2,4-difluoro-3-[5-(2-morpholin-4-yl-ethoxy)-1H-pyrrolo[2,3-b]pyridine-3-carbonyl]-phenyl}-amide] | ≤ 10 | ≤ 10 | – | ≤ 10 | – | – | IC50 [9]: ≤ 10 µM
8 | O=C(c1ccc2cc[nH]c2c1)c1c[nH]c2ncc(OC3CCCC3)cc12 [P-0040, (5-Cyclopentyloxy-1H-pyrrolo[2,3-b]pyridin-3-yl)-(1H-indol-6-yl)-methanone] | – | – | ≤ 10 | ≤ 10 | ≤ 10 | ≤ 10 | IC50 [5]: ≤ 10 µM; IC50 [10]: ≤ 10 µM
9 | FC(F)Oc1ccc(COc2cnc3[nH]ccc3c2)cc1 [P-0014, 5-(4-(difluoromethoxy)benzyloxy)-1H-pyrrolo[2,3-b]pyridine] | – | – | – | ≤ 10 | – | – | –

More lines, main results first:

Row | IC50 [1] [µM] | IC50 [2] [µM] | IC50 [3] [µM] | IC50 [6] [µM] | IC50 [7] [µM] | IC50 [8] [µM] | Structure (SMILES) | also measured
10 | ≤ 10 | ≤ 10 | ≤ 10 | ≤ 10 | – | – | CCCS(=O)(=O)Nc1ccc(F)c(C(=O)c2c[nH]c3ncc(OCc4ccccc4)cc23)c1F [P-0034, Propane-1-sulfonic acid [3-(5-benzyloxy-1H-pyrrolo[2,3-b]pyridine-3-carbonyl)-2,4-difluoro-phenyl]-amide] | IC50 [4]: ≤ 10 µM; IC50 [5]: ≤ 10 µM
11 | ≤ 10 | ≤ 10 | ≤ 10 | ≤ 10 | ≤ 10 | ≤ 10 | CCCS(=O)(=O)Nc1ccc(F)c(C(=O)c2c[nH]c3ncc(OC4CCOCC4)cc23)c1F [P-0045, Propane-1-sulfonic acid {2,4-difluoro-3-[5-(tetrahydro-pyran-4-yloxy)-11H-pyrrolo[2,3-b]pyridine-3-carbonyl]-phenyl}-amide] | IC50 [9]: ≤ 10 µM
12 | – | – | – | ≤ 10 | – | ≤ 10 | c1ccc(COc2cnc3[nH]ccc3c2)cc1 [P-0002, 5-(benzyloxy)-1H-pyrrolo[2,3-b]pyridine] | IC50 [10]: ≤ 10 µM
13 | – | – | ≤ 10 | ≤ 10 | ≤ 10 | ≤ 10 | O=C(O)Cc1cccc(Oc2cnc3[nH]cc(C(=O)c4ccc(F)cc4Cl)c3c2)c1 [P-0039, {3-[3-(2-Chloro-4-fluoro-benzoyl)-1H-pyrrolo[2,3-b]pyridin-5-yloxy]-phenyl}-acetic acid] | IC50 [11]: ≤ 10 µM
14 | – | – | – | ≤ 10 | – | – | CS(=O)(=O)c1ccc(Oc2cnc3[nH]cc(C(=O)c4ccc(F)cc4Cl)c3c2)cc1 [P-0038, (2-Chloro-4-fluoro-phenyl)-[5-(4-methanesulfonyl-phenoxy)-1H-pyrrolo[2,3-b]pyridin-3-yl]-methanone] | IC50 [5]: ≤ 10 µM
15 | ≤ 10 | ≤ 10 | ≤ 10 | ≤ 10 | ≤ 10 | ≤ 10 | CCCS(=O)(=O)Nc1ccc(F)c(C(=O)c2c[nH]c3ncc(OC4CCCC4)cc23)c1F [P-0033, propane-1-sulfonic acid [3-(5-cyclopentyloxy-1H-pyrrolo[2,3-b]pyridine-3-carbonyl)-2,4-difluoro-phenyl]-amide] | IC50 [4]: ≤ 10 µM; IC50 [5]: ≤ 10 µM; IC50 [10]: ≤ 10 µM; IC50 [9]: ≤ 10 µM
16 | – | – | – | ≤ 10 | – | – | COc1cccc(COc2cnc3[nH]ccc3c2)c1 [P-0003, 5-(3-methoxybenzyloxy)-1H-pyrrolo[2,3-b]pyridine] | –
17 | – | – | – | ≤ 10 | ≤ 10 | ≤ 10 | Clc1ccc(Cc2c[nH]c3ncc(Oc4ccccc4)cc23)c(Cl)c1 [P-0037, 3-(2,4-dichloro-benzyl)-5-phenoxy-1H-pyrrolo[2,3-b]pyridine] | –
18 | – | – | – | ≤ 10 | ≤ 10 | ≤ 10 | O=C(c1ccc(Cl)cc1Cl)c1c[nH]c2ncc(Oc3ccccc3)cc12 [P-0036, (2,4-dichloro-phenyl)-(5-phenoxy-1H-pyrrolo[2,3-b]pyridin-3-yl)-methanone] | IC50 [11]: ≤ 10 µM
19 | ≤ 10 | ≤ 10 | – | ≤ 10 | – | – | CCCS(=O)(=O)Nc1ccc(F)c(C(=O)c2c[nH]c3ncc(S(=O)(=O)c4ccc(C)cc4)cc23)c1F [P-0047, Propane-1-sulfonic acid {2,4-difluoro-3-[5-(toluene-4-sulfonyl)-1H-pyrrolo[2,3-b]pyridine-3-carbonyl]-phenyl}-amide] | –

— patent US8268858B2, “Compounds and methods for kinase modulation, and indications therefor” (Plexxikon Inc., priority 2006, dated 2012)
